Several values for one entry are separate records, joined by “and”; a condition that tells them apart may be missing. Equal entries are not always repeated. Marks after values point to notes of the source that are not given here.
How the values were obtained:
[1] = Clinical pharmacokinetics, single ascending inhaled dose in healthy subjects (Cohort 1); format: in vivo, human; details: for AUC0–24h / C max / AUC0–∞ / t ½: geometric mean (CV%); for t max: median (range), postend of inhalation
Experimental: This PC945 first‐in‐human clinical trial (ClinicalTrials.gov Identifier: NCT02715570) was a two‐part randomized, placebo‐controlled study to assess the safety and tolerability of PC945 in both healthy subjects and subjects with mild asthma, conducted at Parexel Early Phase Clinical Unit (Harrow, UK). The study was considered single‐blind as the appearance of active and placebo doses were different, however, it was conducted in a double‐blind manner (employing separate dosing and assessment teams).
(§1) Part one consisted of a single dose escalation study (Cohort 1) and a repeat dose study (Cohort 2) of inhaled PC945 in healthy subjects. Part two comprised a single dose study of inhaled PC945 in subjects with mild asthma (Cohort 3). The doses selected were predicted to achieve target lung concentrations above the IC90/MIC90 for A. fumigatus (based on data from a range of in vitro and in vivo systems) throughout a 24‐hour period and with a suitable safety margin based on animal toxicology data.
In Cohort 1, 11 healthy subjects (three males and eight females; mean age: 48.5 years, mean weight: 65.32 kg, mean body mass index [BMI]: 23.62 kg/m^2), attended the single ascending dose study. Eight healthy subjects started the study in which two subjects were randomized to each of the four ascending dose treatment sequences (Table 1); two subjects withdrew due to adverse events unrelated to study medication and both were replaced. One of the replacement subjects subsequently withdrew from the study for personal reasons and was replaced by another subject (Figure 1). Overall, six subjects each received three of four doses of PC945 (0.5, 2, 5, and 10 mg) and one dose of placebo. These doses were administered with a minimum of 13 days interval to allow for washout.
(§2) Serial blood samples were collected to determine plasma PC945 concentrations. For the single dose study in healthy subjects and in subjects with mild asthma, blood samples were collected predose and at 0.25, 0.5, 1, 2, 4, 6, 8, 24, 30, and 48 hours postend of inhalation and at the follow‐up visit. For the repeat dose study, blood samples were collected (a) predose and at 0.25, 0.5, 1, 2, 4, 6, 8, 10, 12, and 24 hours postend of inhalation on Days 1 and 7, and 30 and 48 hours on Day 7; (b) predose on Days 5 and 6; (c) at the follow‐up visit.

[2] = Toxicokinetics/toxicity in rats, daily 2-hour inhalation for 14 days (plasma); details: for Ro (accumulation ratio): AUC0‐24h (Day14)/AUC0‐24h (Day 1)
From the text: Each dose was inhaled over a 2‐hour period once daily for 14 days.
Lower limit of quantification of the assay was 10 pg/mL for clinical samples and 100 pg/mL for rat and dog plasma samples.

[3] = Clinical pharmacokinetics, repeat inhaled dose in healthy subjects (Cohort 2); format: in vivo, human
From the text: as §1
Nine healthy subjects (four males and five females; mean age: 33.2 years, mean weight: 66.5 kg, mean BMI: 23.53 kg/m^2) whose forced expiratory volume over 1 second (FEV1) and forced vital capacity (FVC) were ≥80% of predicted values with an FEV1/FVC ratio >0.7, received once daily doses of PC945 5 mg or placebo for 7 days (Cohort 2, PC945:placebo = 2:1).
as §2
Attainment of steady state was assessed by visual inspection of the predose plots during the 7‐day treatment period in human subjects.

[4] = female rats, Day 14 of inhaled 2.0 mg/kg/day
[5] = female rats, Day 14 of inhaled 7.1 mg/kg/day
[6] = female rats, Day 14 of inhaled 16.6 mg/kg/day
[7] = female rats, single inhaled dose 2.0 mg/kg (Day 1)
[8] = female rats, single inhaled dose 7.1 mg/kg (Day 1)
[9] = female rats, single inhaled dose 16.6 mg/kg (Day 1)
[10] = male rats, Day 14 of inhaled 2.0 mg/kg/day
[11] = male rats, Day 14 of inhaled 7.1 mg/kg/day
[12] = male rats, Day 14 of inhaled 16.6 mg/kg/day
[13] = male rats, single inhaled dose 2.0 mg/kg (Day 1)
[14] = male rats, single inhaled dose 7.1 mg/kg (Day 1)
[15] = male rats, single inhaled dose 16.6 mg/kg (Day 1)
[16] = healthy subjects, 5 mg once daily, Day 1, geometric mean (CV%)
[17] = healthy subjects, 5 mg once daily, Day 7, geometric mean (CV%)

Cc1cc(N2CCN(c3ccc(C(=O)Nc4ccc(F)cc4)cc3)CC2)ccc1OC[C@@H]1CO[C@@](Cn2cncn2)(c2ccc(F)cc2F)C1 [PC945]
Increase in C max for a doubling in dose ([1]; single doses 0.5 to 10 mg, 90% CI 1.54, 2.02): 1.77 fold
Increase in AUC0–24h for a doubling in dose ([1]; single doses 0.5 to 10 mg, 90% CI 1.64, 2.15): 1.88 fold
AUC0–24h ([1]; single inhaled 0.5 mg): 726 (73.4) ^a pg•h/mL
C max ([1]; single inhaled 0.5 mg): 54.7 (64.8) ^a pg/mL
AUC0–∞ ([1]; single inhaled 0.5 mg, n = 2): 1480 (7.41) ^b pg•h/mL
t ½ ([1]; single inhaled 0.5 mg, n = 2, considered unreliable): 36.9 (24.1) ^b h
t max ([1]; single inhaled 0.5 mg): 1 h and 1.10 (0.250‐2.10) ^a h
AUC0–24h ([1]; single inhaled 2 mg): 1990 (102) pg•h/mL
C max ([1]; single inhaled 2 mg): 128 (107) pg/mL
AUC0–∞ ([1]; single inhaled 2 mg, n = 3): 3140 (175) ^c pg•h/mL
t ½ ([1]; single inhaled 2 mg, n = 3, considered unreliable): 27.9 (58.4) ^c h
t max ([1]; single inhaled 2 mg): 4 h and 4.11 (2.09‐8.11) h
AUC0–24h ([1]; single inhaled 5 mg): 5440 (48.0) pg•h/mL
C max ([1]; single inhaled 5 mg): 322 (51.1) pg/mL
t ½ ([1]; single inhaled 5 mg, n = 4, considered unreliable): 37.3 (36.4) ^d h
t max ([1]; single inhaled 5 mg): 5 h and 5.10 (2.08‐8.12) h
C max ([1]; single inhaled 10 mg): 619 (39.1) pg/mL
t ½ ([1]; single inhaled 10 mg, considered unreliable): 110 (16.5) h
t max ([1]; single inhaled 10 mg): 2 h and 2.13 (0.330‐6.15) h
Ro (accumulation ratio) ([2]; female rats, 2.0 mg/kg/day): 1.84
Ro (accumulation ratio) ([2]; female rats, 16.6 mg/kg/day): 2.53
AUC0‐24h [2, 4]: 336 ng·h/mL
C max [2, 4]: 19.2 ng/mL
AUC0‐24h [2, 5]: 749 ng·h/mL
C max [2, 5]: 50.4 ng/mL
AUC0‐24h [2, 6]: 1850 ng·h/mL
C max [2, 6]: 92.3 ng/mL
AUC0‐24h [2, 7]: 183 ng·h/mL
C max [2, 7]: 10.5 ng/mL
AUC0‐24h [2, 8]: 416 ng·h/mL
C max [2, 8]: 24.8 ng/mL
AUC0‐24h [2, 9]: 731 ng·h/mL
C max [2, 9]: 41.3 ng/mL
Ro (accumulation ratio) ([2]; male rats, 2.0 mg/kg/day): 1.96
AUC0‐24h [2, 10]: 202 ng·h/mL
C max [2, 10]: 12.3 ng/mL
AUC0‐24h [2, 11]: 424 ng·h/mL
C max [2, 11]: 23.7 ng/mL
AUC0‐24h [2, 12]: 1140 ng·h/mL
C max [2, 12]: 76.9 ng/mL
AUC0‐24h [2, 13]: 103 ng·h/mL
C max [2, 13]: 7.3 ng/mL
AUC0‐24h [2, 14]: 217 ng·h/mL
C max [2, 14]: 15.8 ng/mL
AUC0‐24h [2, 15]: 426 ng·h/mL
C max [2, 15]: 26.0 ng/mL
Margin over the clinical AUC following a 5 mg dose ([2]; rat, highest dose tested): 12 fold
Time of C max after a single dose ([2]; rats, after the 2-hour inhalation): 4 h
Systemic toxicity ([2]; rats, highest dose tested): No systemic toxicity
Time of C max after the start of dosing ([2]; rats, single 2-hour inhaled dose (Day 1)): 6 h
AUC0–24h [3, 16]: 6510 (60.0) pg*h/mL
C max [3, 16]: 462 (68.0) pg/mL
t max ([3]; healthy subjects, 5 mg once daily, Day 1, median (range)): 2 h and 2.10 (2.08‐4.08) h
time of C max postend of inhalation ([3]; healthy subjects, 5 mg once daily, Day 7): 45 min
C max [3, 17]: 951 (58.7) pg/mL
t ½ [3, 17]: 132 (22.7) h
t max ([3]; healthy subjects, 5 mg once daily, Day 7, median (range)): 0.745 (0.240‐10.1) h
Cmax ([3]; human, inhaled doses, read-out: C max values obtained with inhaled doses): < 2 nM
Predicted time to steady state ([3]; once daily dosing, human): approximately 5 weeks
